Peptide text beside a SMILES is read from it. * marks the point of attachment. Biotin = O=C1N[C@H]2[C@H](CS[C@H]2CCCCC(=O)*)N1
Tests used:
Assay in all cases: G' assay (10 uM PL peptide), results of TABLE 7 and TABLE 12
Assay type in all cases: binding
[1] = target: T1, PDZ protein (GST-PDZ fusion) (Homo sapiens, UniProt Q86UL8)
T1 construct: made in house; host or cells: E. coli (DH5alpha, BL21 or JM109)
In short: (§1)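 Same steps as the G-zero format, apart from a peptide concentration of 10 uM in place of 20 uM in step 2. Amino-terminally biotinylated PL peptides bind GST-PDZ fusions, and retained peptide is quantified by 450 nm absorbance.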

[2] = target: T2, PDZ protein (GST-PDZ fusion) (Homo sapiens, UniProt Q92796); conditions: PDZ NeDLG
T2 construct: made in house; host or cells: E. coli (DH5alpha, BL21 or JM109)
T2 sequence (Q92796 1-817): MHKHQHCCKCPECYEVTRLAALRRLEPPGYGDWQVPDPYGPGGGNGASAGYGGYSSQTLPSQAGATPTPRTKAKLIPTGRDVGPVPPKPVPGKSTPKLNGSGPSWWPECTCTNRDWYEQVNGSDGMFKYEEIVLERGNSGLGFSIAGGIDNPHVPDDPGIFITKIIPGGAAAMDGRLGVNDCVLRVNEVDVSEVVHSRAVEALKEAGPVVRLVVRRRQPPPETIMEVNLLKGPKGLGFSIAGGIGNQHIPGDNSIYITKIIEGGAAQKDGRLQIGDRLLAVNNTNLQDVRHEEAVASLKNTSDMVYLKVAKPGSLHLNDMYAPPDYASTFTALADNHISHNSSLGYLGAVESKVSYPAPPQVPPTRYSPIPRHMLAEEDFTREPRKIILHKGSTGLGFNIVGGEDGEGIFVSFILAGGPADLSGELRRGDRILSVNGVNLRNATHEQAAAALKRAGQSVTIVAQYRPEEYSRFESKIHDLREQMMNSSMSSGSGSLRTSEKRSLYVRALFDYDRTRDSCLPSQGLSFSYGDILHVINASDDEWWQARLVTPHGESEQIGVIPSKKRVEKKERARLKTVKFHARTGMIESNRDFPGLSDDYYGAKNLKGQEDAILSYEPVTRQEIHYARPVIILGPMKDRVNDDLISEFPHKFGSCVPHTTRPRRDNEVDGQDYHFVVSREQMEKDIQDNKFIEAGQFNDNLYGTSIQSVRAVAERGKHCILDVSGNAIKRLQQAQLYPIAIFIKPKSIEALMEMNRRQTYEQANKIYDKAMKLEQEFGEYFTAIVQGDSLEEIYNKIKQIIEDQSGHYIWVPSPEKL
In short: as §1

[3] = target: T3, PDZ protein (GST-PDZ fusion) (Homo sapiens, UniProt O75970)
T3 construct: made in house; host or cells: E. coli (DH5alpha, BL21 or JM109)
In short: as §1

[4] = target: T4, PDZ protein (GST-PDZ fusion) (Homo sapiens, UniProt Q9P202); conditions: PDZ KIAA1526, PDZ Domain 1
T4 construct: made in house; host or cells: E. coli (DH5alpha, BL21 or JM109)
T4 sequence (Q9P202 1-907): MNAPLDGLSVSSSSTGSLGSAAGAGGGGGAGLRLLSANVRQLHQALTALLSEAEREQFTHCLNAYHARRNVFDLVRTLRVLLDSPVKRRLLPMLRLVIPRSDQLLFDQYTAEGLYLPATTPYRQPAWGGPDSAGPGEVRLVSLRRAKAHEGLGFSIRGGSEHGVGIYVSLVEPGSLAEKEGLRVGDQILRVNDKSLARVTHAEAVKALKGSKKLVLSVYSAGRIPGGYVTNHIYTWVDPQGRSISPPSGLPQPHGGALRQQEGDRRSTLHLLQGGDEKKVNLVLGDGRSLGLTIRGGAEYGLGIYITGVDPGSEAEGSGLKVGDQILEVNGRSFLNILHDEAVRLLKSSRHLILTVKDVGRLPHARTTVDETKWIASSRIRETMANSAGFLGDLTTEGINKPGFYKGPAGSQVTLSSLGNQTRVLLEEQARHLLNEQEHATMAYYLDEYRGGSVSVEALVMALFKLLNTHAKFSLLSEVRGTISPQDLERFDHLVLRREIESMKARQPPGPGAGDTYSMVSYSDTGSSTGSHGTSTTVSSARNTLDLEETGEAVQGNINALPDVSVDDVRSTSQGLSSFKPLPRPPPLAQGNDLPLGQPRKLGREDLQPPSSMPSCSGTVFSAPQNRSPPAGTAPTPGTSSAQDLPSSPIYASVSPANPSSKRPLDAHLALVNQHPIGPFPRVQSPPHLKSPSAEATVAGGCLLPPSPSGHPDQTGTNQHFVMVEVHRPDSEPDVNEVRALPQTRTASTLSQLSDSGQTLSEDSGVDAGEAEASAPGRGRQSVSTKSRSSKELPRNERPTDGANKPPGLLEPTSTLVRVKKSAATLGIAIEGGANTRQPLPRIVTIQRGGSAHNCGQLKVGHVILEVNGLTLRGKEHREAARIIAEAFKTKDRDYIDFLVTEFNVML
In short: as §1

[5] = target: T5, PDZ protein (GST-PDZ fusion) (Homo sapiens, UniProt Q12923)
T5 construct: made in house; host or cells: E. coli (DH5alpha, BL21 or JM109)
T5 sequence (Q12923 whole entry, the tested form may be a part): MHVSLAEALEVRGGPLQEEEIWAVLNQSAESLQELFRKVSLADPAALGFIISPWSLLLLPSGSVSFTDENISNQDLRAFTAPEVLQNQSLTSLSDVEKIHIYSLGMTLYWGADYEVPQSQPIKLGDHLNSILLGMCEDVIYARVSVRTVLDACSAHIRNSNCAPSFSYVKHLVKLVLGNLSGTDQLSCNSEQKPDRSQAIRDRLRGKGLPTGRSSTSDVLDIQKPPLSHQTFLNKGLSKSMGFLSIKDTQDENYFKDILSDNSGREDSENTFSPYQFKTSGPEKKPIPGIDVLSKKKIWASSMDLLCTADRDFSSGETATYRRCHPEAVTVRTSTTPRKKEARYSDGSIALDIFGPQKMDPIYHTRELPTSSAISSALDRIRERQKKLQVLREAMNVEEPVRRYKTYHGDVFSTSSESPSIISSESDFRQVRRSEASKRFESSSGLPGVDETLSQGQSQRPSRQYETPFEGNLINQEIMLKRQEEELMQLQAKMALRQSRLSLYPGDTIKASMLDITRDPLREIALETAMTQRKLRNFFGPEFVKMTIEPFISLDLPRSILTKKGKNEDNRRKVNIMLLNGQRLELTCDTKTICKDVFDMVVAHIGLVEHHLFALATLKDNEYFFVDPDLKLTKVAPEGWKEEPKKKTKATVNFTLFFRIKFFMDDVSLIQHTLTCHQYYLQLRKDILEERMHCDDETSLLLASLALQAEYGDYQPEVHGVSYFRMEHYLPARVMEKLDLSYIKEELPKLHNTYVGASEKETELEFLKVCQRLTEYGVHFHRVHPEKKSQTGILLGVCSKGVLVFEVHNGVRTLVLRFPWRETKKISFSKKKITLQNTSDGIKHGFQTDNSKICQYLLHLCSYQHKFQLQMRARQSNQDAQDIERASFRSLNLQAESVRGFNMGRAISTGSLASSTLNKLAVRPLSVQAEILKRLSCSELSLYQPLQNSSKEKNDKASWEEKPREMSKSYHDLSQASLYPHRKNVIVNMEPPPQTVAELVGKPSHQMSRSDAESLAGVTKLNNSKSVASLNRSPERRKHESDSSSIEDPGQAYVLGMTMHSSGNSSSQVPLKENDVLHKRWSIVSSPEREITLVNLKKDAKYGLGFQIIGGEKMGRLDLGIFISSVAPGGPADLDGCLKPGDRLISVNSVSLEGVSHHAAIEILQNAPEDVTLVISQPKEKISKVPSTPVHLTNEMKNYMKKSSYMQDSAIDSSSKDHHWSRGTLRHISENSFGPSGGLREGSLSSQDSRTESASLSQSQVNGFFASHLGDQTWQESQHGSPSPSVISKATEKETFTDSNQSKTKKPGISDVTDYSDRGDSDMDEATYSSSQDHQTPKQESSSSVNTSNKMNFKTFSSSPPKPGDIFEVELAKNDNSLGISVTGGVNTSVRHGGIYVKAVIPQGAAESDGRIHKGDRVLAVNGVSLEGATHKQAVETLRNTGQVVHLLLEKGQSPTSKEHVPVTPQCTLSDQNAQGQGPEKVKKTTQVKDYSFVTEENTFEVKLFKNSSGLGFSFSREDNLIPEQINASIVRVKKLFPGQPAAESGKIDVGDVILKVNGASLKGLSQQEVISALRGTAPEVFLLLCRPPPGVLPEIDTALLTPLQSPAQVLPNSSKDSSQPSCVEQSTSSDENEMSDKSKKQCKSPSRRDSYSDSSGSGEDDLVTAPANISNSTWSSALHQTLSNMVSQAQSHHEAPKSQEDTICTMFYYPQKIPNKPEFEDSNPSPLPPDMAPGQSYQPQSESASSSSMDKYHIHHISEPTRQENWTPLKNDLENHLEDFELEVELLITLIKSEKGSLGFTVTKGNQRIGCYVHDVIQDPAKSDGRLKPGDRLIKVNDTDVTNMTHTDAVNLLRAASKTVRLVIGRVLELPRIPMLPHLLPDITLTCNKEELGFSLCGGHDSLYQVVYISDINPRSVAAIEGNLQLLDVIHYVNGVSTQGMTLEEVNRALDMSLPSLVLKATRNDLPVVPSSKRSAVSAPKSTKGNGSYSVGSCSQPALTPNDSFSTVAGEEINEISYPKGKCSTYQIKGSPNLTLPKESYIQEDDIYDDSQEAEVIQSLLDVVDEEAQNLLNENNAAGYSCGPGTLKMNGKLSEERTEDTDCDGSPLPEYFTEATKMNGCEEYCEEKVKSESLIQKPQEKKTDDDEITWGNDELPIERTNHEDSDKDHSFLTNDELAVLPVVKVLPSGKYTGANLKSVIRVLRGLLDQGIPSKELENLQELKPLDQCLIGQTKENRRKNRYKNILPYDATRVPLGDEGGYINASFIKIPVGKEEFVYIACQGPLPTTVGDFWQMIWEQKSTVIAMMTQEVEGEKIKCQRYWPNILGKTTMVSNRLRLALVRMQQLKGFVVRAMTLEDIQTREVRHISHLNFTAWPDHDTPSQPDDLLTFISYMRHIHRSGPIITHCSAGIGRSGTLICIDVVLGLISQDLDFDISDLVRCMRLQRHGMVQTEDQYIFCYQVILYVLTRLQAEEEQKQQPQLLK
In short: as §1

[6] = PDZ Atrophin-1 Inter. Prot., PDZ Domain 5
[7] = PDZ atrophin-1 interacting Protein, PDZ Domain 3
[8] = PDZ atrophin-1 interacting Protein (Atrophin-1 Inter. Prot.), PDZ Domain 1
[9] = PDZ atrophin-1 interacting Protein, PDZ Domain 2

T1 sequence (Q86UL8 whole entry, the tested form may be a part): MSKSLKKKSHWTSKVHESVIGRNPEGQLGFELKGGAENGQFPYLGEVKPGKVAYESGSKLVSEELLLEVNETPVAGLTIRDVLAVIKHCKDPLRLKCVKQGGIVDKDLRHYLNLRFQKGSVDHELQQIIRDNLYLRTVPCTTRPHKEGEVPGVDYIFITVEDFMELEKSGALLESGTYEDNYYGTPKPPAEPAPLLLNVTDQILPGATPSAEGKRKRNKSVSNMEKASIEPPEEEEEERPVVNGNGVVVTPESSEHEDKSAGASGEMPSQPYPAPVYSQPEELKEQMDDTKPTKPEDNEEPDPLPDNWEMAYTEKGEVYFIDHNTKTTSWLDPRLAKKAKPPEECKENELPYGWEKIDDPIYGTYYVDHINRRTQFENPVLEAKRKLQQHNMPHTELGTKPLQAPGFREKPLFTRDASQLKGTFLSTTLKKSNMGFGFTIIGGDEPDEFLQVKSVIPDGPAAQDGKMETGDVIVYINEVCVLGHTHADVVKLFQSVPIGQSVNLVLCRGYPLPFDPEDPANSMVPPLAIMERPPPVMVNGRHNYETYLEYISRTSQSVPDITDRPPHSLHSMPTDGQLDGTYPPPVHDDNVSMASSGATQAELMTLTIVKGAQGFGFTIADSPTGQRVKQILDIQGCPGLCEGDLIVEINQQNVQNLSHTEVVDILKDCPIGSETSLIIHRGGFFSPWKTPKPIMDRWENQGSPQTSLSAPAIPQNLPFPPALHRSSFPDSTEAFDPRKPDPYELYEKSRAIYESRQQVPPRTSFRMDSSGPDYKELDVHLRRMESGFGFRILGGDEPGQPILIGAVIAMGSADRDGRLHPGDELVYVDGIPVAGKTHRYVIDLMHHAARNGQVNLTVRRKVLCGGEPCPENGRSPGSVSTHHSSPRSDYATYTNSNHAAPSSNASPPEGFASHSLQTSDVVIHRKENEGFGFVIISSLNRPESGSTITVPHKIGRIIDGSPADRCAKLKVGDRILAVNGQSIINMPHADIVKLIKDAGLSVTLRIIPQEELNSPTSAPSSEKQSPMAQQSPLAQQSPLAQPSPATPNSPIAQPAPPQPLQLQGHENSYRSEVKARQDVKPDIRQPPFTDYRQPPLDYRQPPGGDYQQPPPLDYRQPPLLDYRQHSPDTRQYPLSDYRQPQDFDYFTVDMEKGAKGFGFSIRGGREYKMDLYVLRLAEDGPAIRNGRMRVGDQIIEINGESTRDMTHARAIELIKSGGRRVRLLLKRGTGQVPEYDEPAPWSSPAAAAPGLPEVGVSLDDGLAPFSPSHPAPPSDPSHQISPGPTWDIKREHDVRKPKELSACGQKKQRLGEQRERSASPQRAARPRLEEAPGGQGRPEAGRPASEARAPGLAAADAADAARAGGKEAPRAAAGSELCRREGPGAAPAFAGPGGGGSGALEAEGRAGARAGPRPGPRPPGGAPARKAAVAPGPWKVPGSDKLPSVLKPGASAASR

Compound	Classification [1, 6]	Classification ([1]; PDZ atrophin-1 interacting Protein, PDZ Domain 1)	Classification [1, 7]	Classification ([2]; PDZ Domain 1)	Classification ([2]; PDZ Domain 1, 2)	Classification ([2]; PDZ Domain 2)	Classification ([2]; PDZ Domain 3)	Classification ([3]; PDZ MUPP-1, PDZ Domain 5)	Classification ([3]; PDZ MUPP-1, PDZ Domain 10)	Classification ([3]; PDZ MUPP-1, PDZ Domain 13)	Classification [4]	Classification ([5]; PDZ PTPL-1, PDZ Domain 2)	Classification [1, 8]	Classification [1, 9]	Classification ([5]; PDZ PTPL-1, PDZ Domain 4)
TQGFPGPATWRRISSLESEV	5 (A450 nm of 4 more than 2× repeated)	5 (A450 nm of 4 more than 2× repeated)	2 (A450 nm 1-2)	2 (A450 nm 1-2)	5 (A450 nm of 4 more than 2× repeated)	5 (A450 nm of 4 more than 2× repeated)	1 (A450 nm 0-1)	1 (A450 nm 0-1)	1 (A450 nm 0-1)	5 (A450 nm of 4 more than 2× repeated)	3 (A450 nm 2-3)	5 (A450 nm of 4 more than 2× repeated)	–	–	–
CC(C)C[C@H](NC(=O)[C@H](C)NC(=O)[C@H](CO)NC(=O)CNC(=O)[C@@H](NC(=O)CCCC[C@@H]1SC[C@@H]2NC(=O)N[C@@H]21)[C@@H](C)O)C(=O)N[C@@H](CCC(N)=O)C(=O)N[C@@H](C)C(=O)N[C@@H](Cc1c[nH]c2ccccc12)C(=O)N[C@@H](CCCNC(=N)N)C(=O)N[C@@H](Cc1c[nH]cn1)C(=O)N[C@H](C(=O)N[C@@H](CO)C(=O)N[C@@H](CCCNC(=N)N)C(=O)N[C@@H](CCC(N)=O)C(=O)N[C@@H](C)C(=O)N[C@H](C(=O)N[C@@H](CCC(=O)O)C(=O)N[C@@H](CO)C(=O)N[C@H](C(=O)N[C@H](C(=O)O)C(C)C)[C@@H](C)O)[C@@H](C)O)[C@@H](C)O [HPV E6 #66 (modified)] (Biotin-TGSALQAWRHTSRQATESTV-OH; C-terminus assumed)	1 (A450 nm 0-1)	–	–	1 (A450 nm 0-1)	5 (A450 nm of 4 more than 2× repeated)	4 (A450 nm 3-4)	–	–	1 (A450 nm 0-1)	3 (A450 nm 2-3)	1 (A450 nm 0-1)	3 (A450 nm 2-3)	5 (A450 nm of 4 more than 2× repeated)	–	–
CC[C@H](C)[C@H](NC(=O)[C@H](CCC(N)=O)NC(=O)CCCC[C@@H]1SC[C@@H]2NC(=O)N[C@@H]21)C(=O)N[C@@H](CO)C(=O)N1CCC[C@H]1C(=O)NCC(=O)NCC(=O)N[C@@H](CC(C)C)C(=O)N[C@@H](CCC(=O)O)C(=O)N1CCC[C@H]1C(=O)N1CCC[C@H]1C(=O)N[C@@H](CO)C(=O)N[C@@H](CCC(=O)O)C(=O)N[C@@H](CCCCN)C(=O)N[C@@H](Cc1c[nH]cn1)C(=O)N[C@@H](Cc1ccccc1)C(=O)N[C@@H](CCCNC(=N)N)C(=O)N[C@@H](CCC(=O)O)C(=O)N[C@H](C(=O)N[C@@H](CCC(=O)O)C(=O)N[C@H](C(=O)O)C(C)C)[C@@H](C)O [Tax]	3 (A450 nm 2-3)	–	1 (A450 nm 0-1)	–	–	5 (A450 nm of 4 more than 2× repeated)	5 (A450 nm of 4 more than 2× repeated)	–	–	5 (A450 nm of 4 more than 2× repeated)	3 (A450 nm 2-3)	2 (A450 nm 1-2)	5 (A450 nm of 4 more than 2× repeated)	1 (A450 nm 0-1)	–
CSCC[C@H](NC(=O)[C@H](C)NC(=O)[C@H](CCCNC(=N)N)NC(=O)CNC(=O)[C@@H](NC(=O)[C@H](Cc1c[nH]c2ccccc12)NC(=O)[C@H](CCCNC(=N)N)NC(=O)CNC(=O)CCCC[C@@H]1SC[C@@H]2NC(=O)N[C@@H]21)[C@@H](C)O)C(=O)N[C@@H](CO)C(=O)N[C@@H](C)C(=O)N[C@@H](Cc1c[nH]c2ccccc12)C(=O)N[C@@H](CCCCN)C(=O)N1CCC[C@H]1C(=O)N[C@H](C(=O)N[C@@H](CCCNC(=N)N)C(=O)N[C@@H](CCCNC(=N)N)C(=O)N[C@@H](CCC(=O)O)C(=O)N[C@H](C(=O)N[C@@H](CCC(=O)O)C(=O)N[C@H](C(=O)O)C(C)C)[C@@H](C)O)[C@@H](C)O [HPV E6 #35 (modified)] (Biotin-GRWTGRAMSAWKPTRRETEV-OH; C-terminus assumed)	4 (A450 nm 3-4)	–	4 (A450 nm 3-4)	5 (A450 nm of 4 more than 2× repeated)	5 (A450 nm of 4 more than 2× repeated)	5 (A450 nm of 4 more than 2× repeated)	5 (A450 nm of 4 more than 2× repeated)	2 (A450 nm 1-2)	4 (A450 nm 3-4)	5 (A450 nm of 4 more than 2× repeated)	3 (A450 nm 2-3)	2 (A450 nm 1-2)	5 (A450 nm of 4 more than 2× repeated)	1 (A450 nm 0-1)	1 (A450 nm 0-1)

Reference: US20050282743A1, “Molecular interactions in cells” (Arbor Vita Corporation, priority 2001, published 2005)
